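Cultured in 96-well plates, cells were exposed to test compound for 48 hours across five concentrations. GI50 = concentration required for 50% inhibition of growth. TGI marks complete inhibition of growth.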
Test system: NCI-H226 lung
Assay: NCI tumour cell line growth inhibition, 48 h

| Structure (SMILES) | TGI [µM] | GI50 [µM] |
| --- | --- | --- |
| COc1cc2c(cc1OC)[C@@H]1[C@H](C#N)C(=O)C(C)(C)N1CC2 | > 100 |  |
| COc1cc(/C=C/c2cc(/C=C/c3ccc(O)c(OC)c3)n(C(=O)Nc3ccc(F)cc3)n2)ccc1O | 9.79 | 2.62 |
| CCc1ccc2c(c1)C(=O)c1c-2n(CCCBr)c(=O)c2cc([N+](=O)[O-])ccc12 | > 50 | 27.7 |
| Nn1c(CCCCCCCCc2nnc(COc3ccc(Cl)cc3Cl)n2N)nnc1COc1ccc(Cl)cc1Cl | > 100 |  |

Test system: NCI-H23 lung
Assay: NCI tumour cell line growth inhibition, 48 h

| Structure (SMILES) | TGI [µM] | GI50 [µM] |
| --- | --- | --- |
| O=C(Nc1ccccc1)OCCN=C1c2ccccc2C(Br)C(Br)c2ccccc21 (stereo not given) | 25.9 |  |
| COc1cc2c(cc1OC)[C@@H]1[C@H](C#N)C(=O)C(C)(C)N1CC2 | > 100 |  |
| COc1cc(/C=C/c2cc(/C=C/c3ccc(O)c(OC)c3)n(C(=O)Nc3ccc(F)cc3)n2)ccc1O | 4.45 | 0.727 |
| CCc1ccc2c(c1)C(=O)c1c-2n(CCCBr)c(=O)c2cc([N+](=O)[O-])ccc12 | > 50 | > 50 |
| Nn1c(CCCCCCCCc2nnc(COc3ccc(Cl)cc3Cl)n2N)nnc1COc1ccc(Cl)cc1Cl | > 100 |  |

Test system: NCI-H460 lung
Assay: NCI tumour cell line growth inhibition, 48 h

| Structure (SMILES) | TGI [µM] | GI50 [µM] |
| --- | --- | --- |
| O=C(Nc1ccccc1)OCCN=C1c2ccccc2C(Br)C(Br)c2ccccc21 (stereo not given) | 19.5 |  |
| COc1cc2c(cc1OC)[C@@H]1[C@H](C#N)C(=O)C(C)(C)N1CC2 | > 100 |  |
| COc1cc(/C=C/c2cc(/C=C/c3ccc(O)c(OC)c3)n(C(=O)Nc3ccc(F)cc3)n2)ccc1O | 12.4 | 0.546 |
| CCc1ccc2c(c1)C(=O)c1c-2n(CCCBr)c(=O)c2cc([N+](=O)[O-])ccc12 | > 50 | > 50 |
| Nn1c(CCCCCCCCc2nnc(COc3ccc(Cl)cc3Cl)n2N)nnc1COc1ccc(Cl)cc1Cl | > 100 |  |

Test system: NCI-H522 lung
Assay: NCI tumour cell line growth inhibition, 48 h

| Structure (SMILES) | TGI [µM] | GI50 [µM] |
| --- | --- | --- |
| O=C(Nc1ccccc1)OCCN=C1c2ccccc2C(Br)C(Br)c2ccccc21 (stereo not given) | 8.41 |  |
| COc1cc2c(cc1OC)[C@@H]1[C@H](C#N)C(=O)C(C)(C)N1CC2 | > 100 |  |
| COc1cc(/C=C/c2cc(/C=C/c3ccc(O)c(OC)c3)n(C(=O)Nc3ccc(F)cc3)n2)ccc1O | 1.21 | 0.25 |
| CCc1ccc2c(c1)C(=O)c1c-2n(CCCBr)c(=O)c2cc([N+](=O)[O-])ccc12 | > 50 | 45.9 |
| Nn1c(CCCCCCCCc2nnc(COc3ccc(Cl)cc3Cl)n2N)nnc1COc1ccc(Cl)cc1Cl | 59.7 |  |

Test system: NCI/ADR-RES ovarian
Assay: NCI tumour cell line growth inhibition, 48 h

| Structure (SMILES) | TGI [µM] | GI50 [µM] |
| --- | --- | --- |
| O=C(Nc1ccccc1)OCCN=C1c2ccccc2C(Br)C(Br)c2ccccc21 (stereo not given) | 19.4 |  |
| COc1cc2c(cc1OC)[C@@H]1[C@H](C#N)C(=O)C(C)(C)N1CC2 | > 100 |  |
| COc1cc(/C=C/c2cc(/C=C/c3ccc(O)c(OC)c3)n(C(=O)Nc3ccc(F)cc3)n2)ccc1O | 27.4 | 0.449 |
| CCc1ccc2c(c1)C(=O)c1c-2n(CCCBr)c(=O)c2cc([N+](=O)[O-])ccc12 | > 50 | > 50 |
| Nn1c(CCCCCCCCc2nnc(COc3ccc(Cl)cc3Cl)n2N)nnc1COc1ccc(Cl)cc1Cl | > 100 |  |

Test system: OVCAR-3 ovarian
Assay: NCI tumour cell line growth inhibition, 48 h

| Structure (SMILES) | TGI [µM] | GI50 [µM] |
| --- | --- | --- |
| O=C(Nc1ccccc1)OCCN=C1c2ccccc2C(Br)C(Br)c2ccccc21 (stereo not given) | 15.8 |  |
| COc1cc2c(cc1OC)[C@@H]1[C@H](C#N)C(=O)C(C)(C)N1CC2 | > 100 |  |
| COc1cc(/C=C/c2cc(/C=C/c3ccc(O)c(OC)c3)n(C(=O)Nc3ccc(F)cc3)n2)ccc1O | 3.13 | 0.474 |
| CCc1ccc2c(c1)C(=O)c1c-2n(CCCBr)c(=O)c2cc([N+](=O)[O-])ccc12 | > 50 | > 50 |

Test system: OVCAR-4 ovarian
Assay: NCI tumour cell line growth inhibition, 48 h

| Structure (SMILES) | TGI [µM] | GI50 [µM] |
| --- | --- | --- |
| O=C(Nc1ccccc1)OCCN=C1c2ccccc2C(Br)C(Br)c2ccccc21 (stereo not given) | 21.9 |  |
| COc1cc2c(cc1OC)[C@@H]1[C@H](C#N)C(=O)C(C)(C)N1CC2 | > 100 |  |
| COc1cc(/C=C/c2cc(/C=C/c3ccc(O)c(OC)c3)n(C(=O)Nc3ccc(F)cc3)n2)ccc1O | 7.57 | 1.36 |
| CCc1ccc2c(c1)C(=O)c1c-2n(CCCBr)c(=O)c2cc([N+](=O)[O-])ccc12 | > 50 | 48.1 |
| Nn1c(CCCCCCCCc2nnc(COc3ccc(Cl)cc3Cl)n2N)nnc1COc1ccc(Cl)cc1Cl | > 100 |  |

Test system: OVCAR-5 ovarian
Assay: NCI tumour cell line growth inhibition, 48 h

| Structure (SMILES) | TGI [µM] | GI50 [µM] |
| --- | --- | --- |
| O=C(Nc1ccccc1)OCCN=C1c2ccccc2C(Br)C(Br)c2ccccc21 (stereo not given) | > 31.6 |  |
| COc1cc2c(cc1OC)[C@@H]1[C@H](C#N)C(=O)C(C)(C)N1CC2 | > 100 |  |
| COc1cc(/C=C/c2cc(/C=C/c3ccc(O)c(OC)c3)n(C(=O)Nc3ccc(F)cc3)n2)ccc1O | 45 | 3.99 |
| CCc1ccc2c(c1)C(=O)c1c-2n(CCCBr)c(=O)c2cc([N+](=O)[O-])ccc12 | > 50 | > 50 |
| Nn1c(CCCCCCCCc2nnc(COc3ccc(Cl)cc3Cl)n2N)nnc1COc1ccc(Cl)cc1Cl | > 100 |  |

Test system: OVCAR-8 ovarian
Assay: NCI tumour cell line growth inhibition, 48 h

| Structure (SMILES) | TGI [µM] | GI50 [µM] |
| --- | --- | --- |
| O=C(Nc1ccccc1)OCCN=C1c2ccccc2C(Br)C(Br)c2ccccc21 (stereo not given) | 13 |  |
| COc1cc2c(cc1OC)[C@@H]1[C@H](C#N)C(=O)C(C)(C)N1CC2 | > 100 |  |
| COc1cc(/C=C/c2cc(/C=C/c3ccc(O)c(OC)c3)n(C(=O)Nc3ccc(F)cc3)n2)ccc1O | 4.79 | 1.5 |
| CCc1ccc2c(c1)C(=O)c1c-2n(CCCBr)c(=O)c2cc([N+](=O)[O-])ccc12 | > 50 | > 50 |

Test system: PC-3 prostate
Assay: NCI tumour cell line growth inhibition, 48 h

| Structure (SMILES) | TGI [µM] | GI50 [µM] |
| --- | --- | --- |
| O=C(Nc1ccccc1)OCCN=C1c2ccccc2C(Br)C(Br)c2ccccc21 (stereo not given) | > 31.6 |  |
| COc1cc2c(cc1OC)[C@@H]1[C@H](C#N)C(=O)C(C)(C)N1CC2 | > 100 |  |
| COc1cc(/C=C/c2cc(/C=C/c3ccc(O)c(OC)c3)n(C(=O)Nc3ccc(F)cc3)n2)ccc1O | 12.8 | 0.957 |
| CCc1ccc2c(c1)C(=O)c1c-2n(CCCBr)c(=O)c2cc([N+](=O)[O-])ccc12 | > 50 | > 50 |
| Nn1c(CCCCCCCCc2nnc(COc3ccc(Cl)cc3Cl)n2N)nnc1COc1ccc(Cl)cc1Cl | > 100 |  |

Test system: RPMI-8226 leukemia
Assay: NCI tumour cell line growth inhibition, 48 h

| Structure (SMILES) | TGI [µM] | GI50 [µM] |
| --- | --- | --- |
| O=C(Nc1ccccc1)OCCN=C1c2ccccc2C(Br)C(Br)c2ccccc21 (stereo not given) | 19.9 |  |
| COc1cc2c(cc1OC)[C@@H]1[C@H](C#N)C(=O)C(C)(C)N1CC2 | > 100 |  |
| COc1cc(/C=C/c2cc(/C=C/c3ccc(O)c(OC)c3)n(C(=O)Nc3ccc(F)cc3)n2)ccc1O | 3.37 | 0.454 |
| CCc1ccc2c(c1)C(=O)c1c-2n(CCCBr)c(=O)c2cc([N+](=O)[O-])ccc12 | > 50 | > 50 |
| Nn1c(CCCCCCCCc2nnc(COc3ccc(Cl)cc3Cl)n2N)nnc1COc1ccc(Cl)cc1Cl | > 100 |  |

Test system: RXF 393 renal
Assay: NCI tumour cell line growth inhibition, 48 h

| Structure (SMILES) | TGI [µM] | GI50 [µM] |
| --- | --- | --- |
| O=C(Nc1ccccc1)OCCN=C1c2ccccc2C(Br)C(Br)c2ccccc21 (stereo not given) | 9.69 |  |
| COc1cc(/C=C/c2cc(/C=C/c3ccc(O)c(OC)c3)n(C(=O)Nc3ccc(F)cc3)n2)ccc1O | 0.994 | 0.268 |
| CCc1ccc2c(c1)C(=O)c1c-2n(CCCBr)c(=O)c2cc([N+](=O)[O-])ccc12 | > 50 | 21.8 |
| Nn1c(CCCCCCCCc2nnc(COc3ccc(Cl)cc3Cl)n2N)nnc1COc1ccc(Cl)cc1Cl | > 100 |  |

Test system: SF-268 CNS
Assay: NCI tumour cell line growth inhibition, 48 h

| Structure (SMILES) | TGI [µM] | GI50 [µM] |
| --- | --- | --- |
| O=C(Nc1ccccc1)OCCN=C1c2ccccc2C(Br)C(Br)c2ccccc21 (stereo not given) | 15.6 |  |
| COc1cc(/C=C/c2cc(/C=C/c3ccc(O)c(OC)c3)n(C(=O)Nc3ccc(F)cc3)n2)ccc1O | 10 | 0.602 |
| CCc1ccc2c(c1)C(=O)c1c-2n(CCCBr)c(=O)c2cc([N+](=O)[O-])ccc12 | > 50 | 15.9 |
| Nn1c(CCCCCCCCc2nnc(COc3ccc(Cl)cc3Cl)n2N)nnc1COc1ccc(Cl)cc1Cl | > 100 |  |

Test system: SF-295 CNS
Assay: NCI tumour cell line growth inhibition, 48 h

| Structure (SMILES) | TGI [µM] | GI50 [µM] |
| --- | --- | --- |
| O=C(Nc1ccccc1)OCCN=C1c2ccccc2C(Br)C(Br)c2ccccc21 (stereo not given) | > 31.6 |  |
| COc1cc2c(cc1OC)[C@@H]1[C@H](C#N)C(=O)C(C)(C)N1CC2 | > 100 |  |
| COc1cc(/C=C/c2cc(/C=C/c3ccc(O)c(OC)c3)n(C(=O)Nc3ccc(F)cc3)n2)ccc1O | 29.7 | 2.63 |
| CCc1ccc2c(c1)C(=O)c1c-2n(CCCBr)c(=O)c2cc([N+](=O)[O-])ccc12 | > 50 | 36.5 |

Test system: SF-539 CNS
Assay: NCI tumour cell line growth inhibition, 48 h

| Structure (SMILES) | TGI [µM] | GI50 [µM] |
| --- | --- | --- |
| O=C(Nc1ccccc1)OCCN=C1c2ccccc2C(Br)C(Br)c2ccccc21 (stereo not given) | 7.2 |  |
| COc1cc(/C=C/c2cc(/C=C/c3ccc(O)c(OC)c3)n(C(=O)Nc3ccc(F)cc3)n2)ccc1O | 5.31 | 0.46 |
